Results reported in the supplement of paper PMC10307832.

Assays:
Experiment in all cases: relative viability (nuclei count vs DMSO), 5 days (fraction); higher = more cells survive
Everolimus = compound: CO[C@H]1C[C@@H]2CC[C@@H](C)[C@@](O)(O2)C(=O)C(=O)N2CCCC[C@H]2C(=O)O[C@H]([C@H](C)C[C@@H]2CC[C@@H](OCCO)[C@H](OC)C2)CC(=O)[C@H](C)/C=C(\C)[C@@H](O)[C@@H](OC)C(=O)[C@H](C)C[C@H](C)/C=C/C=C/C=C/1C [Everolimus]
Method in brief: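 Lung cancer cell lines were seeded into 1536-well plates, kept overnight at 37 °C and pinned with five library-drug doses (not always all listed) spaced by √10. After 5 days, nuclei were Hoechst-stained, imaged at 4× and counted with MetaXpress. Viability is treated-well nuclei over vehicle-well nuclei, taken as a median across plates. Plates needed control CV below 25% and at least one doubling.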

Everolimus + Luminespib = compound: CO[C@H]1C[C@@H]2CC[C@@H](C)[C@@](O)(O2)C(=O)C(=O)N2CCCC[C@H]2C(=O)O[C@H]([C@H](C)C[C@@H]2CC[C@@H](OCCO)[C@H](OC)C2)CC(=O)[C@H](C)/C=C(\C)[C@@H](O)[C@@H](OC)C(=O)[C@H](C)C[C@H](C)/C=C/C=C/C=C/1C [Everolimus] + CCNC(=O)c1noc(-c2cc(C(C)C)c(O)cc2O)c1-c1ccc(CN2CCOCC2)cc1 [Luminespib] (partner 0.01 µM)
Method in brief: (§1)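 Lung cancer cell lines were pin-tool dosed in 1536-well plates on the day after seeding, with either a lone drug or a fixed anchor-drug dose plus five library-drug doses (not always all listed) in √10 steps. Nuclei were counted on 4× images after 5 days. Relative viability is the ratio of treated-well to vehicle-well nuclei counts, with each value a median of duplicate plates.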

Everolimus + Foretinib = compound: CO[C@H]1C[C@@H]2CC[C@@H](C)[C@@](O)(O2)C(=O)C(=O)N2CCCC[C@H]2C(=O)O[C@H]([C@H](C)C[C@@H]2CC[C@@H](OCCO)[C@H](OC)C2)CC(=O)[C@H](C)/C=C(\C)[C@@H](O)[C@@H](OC)C(=O)[C@H](C)C[C@H](C)/C=C/C=C/C=C/1C [Everolimus] + COc1cc2c(Oc3ccc(NC(=O)C4(C(=O)Nc5ccc(F)cc5)CC4)cc3F)ccnc2cc1OCCCN1CCOCC1 [Foretinib] (partner 0.25 µM)
Method in brief: as §1

Everolimus + OSI-027 = compound: CO[C@H]1C[C@@H]2CC[C@@H](C)[C@@](O)(O2)C(=O)C(=O)N2CCCC[C@H]2C(=O)O[C@H]([C@H](C)C[C@@H]2CC[C@@H](OCCO)[C@H](OC)C2)CC(=O)[C@H](C)/C=C(\C)[C@@H](O)[C@@H](OC)C(=O)[C@H](C)C[C@H](C)/C=C/C=C/C=C/1C [Everolimus] + COc1cccc2cc(-c3nc([C@H]4CC[C@H](C(=O)O)CC4)n4ncnc(N)c34)[nH]c12 [OSI-027] (partner 0.5 µM)
Method in brief: as §1

Everolimus + Tozasertib = compound: CO[C@H]1C[C@@H]2CC[C@@H](C)[C@@](O)(O2)C(=O)C(=O)N2CCCC[C@H]2C(=O)O[C@H]([C@H](C)C[C@@H]2CC[C@@H](OCCO)[C@H](OC)C2)CC(=O)[C@H](C)/C=C(\C)[C@@H](O)[C@@H](OC)C(=O)[C@H](C)C[C@H](C)/C=C/C=C/C=C/1C [Everolimus] + Cc1cc(Nc2cc(N3CCN(C)CC3)nc(Sc3ccc(NC(=O)C4CC4)cc3)n2)n[nH]1 [Tozasertib] (partner 0.1 µM)
Method in brief: as §1

Everolimus + Dasatinib = compound: CO[C@H]1C[C@@H]2CC[C@@H](C)[C@@](O)(O2)C(=O)C(=O)N2CCCC[C@H]2C(=O)O[C@H]([C@H](C)C[C@@H]2CC[C@@H](OCCO)[C@H](OC)C2)CC(=O)[C@H](C)/C=C(\C)[C@@H](O)[C@@H](OC)C(=O)[C@H](C)C[C@H](C)/C=C/C=C/C=C/1C [Everolimus] + Cc1nc(Nc2ncc(C(=O)Nc3c(C)cccc3Cl)s2)cc(N2CCN(CCO)CC2)n1 [Dasatinib] (partner 0.075 µM)
Method in brief: as §1

Everolimus + Phenformin = compound: CO[C@H]1C[C@@H]2CC[C@@H](C)[C@@](O)(O2)C(=O)C(=O)N2CCCC[C@H]2C(=O)O[C@H]([C@H](C)C[C@@H]2CC[C@@H](OCCO)[C@H](OC)C2)CC(=O)[C@H](C)/C=C(\C)[C@@H](O)[C@@H](OC)C(=O)[C@H](C)C[C@H](C)/C=C/C=C/C=C/1C [Everolimus] + N=C(N)NC(=N)NCCc1ccccc1 [Phenformin] (partner 250 µM)
Method in brief: as §1

NCI-H1623 showed a relative viability (Everolimus; 0.01 µM) of 0.773, a relative viability (Everolimus; 0.03162 µM) of 0.622 and a relative viability (Everolimus; 0.1 µM) of 0.595. The relative viability (Everolimus; 0.3162 µM) was 0.581, the relative viability (Everolimus; 1 µM) was 0.514 and the relative viability (Everolimus + Luminespib; first compound 0.01 µM) was 0.467. The relative viability (Everolimus + Luminespib; first compound 0.03162 µM) was 0.336, the relative viability (Everolimus + Luminespib; first compound 0.1 µM) was 0.307 and the relative viability (Everolimus + Luminespib; first compound 0.3162 µM) was 0.326. It also gave a relative viability (Everolimus + Luminespib; first compound 1 µM) of 0.296, a relative viability (Everolimus + Foretinib; first compound 0.01 µM) of 0.721 and a relative viability (Everolimus + Foretinib; first compound 0.03162 µM) of 0.831. For the same cell line, the relative viability (Everolimus + Foretinib; first compound 0.1 µM) was 0.53, the relative viability (Everolimus + Foretinib; first compound 0.3162 µM) was 0.511 and the relative viability (Everolimus + Foretinib; first compound 1 µM) was 0.563. For the same cell line, the relative viability (Everolimus + OSI-027; first compound 0.01 µM) was 0.408, the relative viability (Everolimus + OSI-027; first compound 0.03162 µM) was 0.395 and the relative viability (Everolimus + OSI-027; first compound 0.1 µM) was 0.362. It also gave a relative viability (Everolimus + OSI-027; first compound 0.3162 µM) of 0.384, a relative viability (Everolimus + OSI-027; first compound 1 µM) of 0.372 and a relative viability (Everolimus + Tozasertib; first compound 0.01 µM) of 0.411. It also gave a relative viability (Everolimus + Tozasertib; first compound 0.03162 µM) of 0.396, a relative viability (Everolimus + Tozasertib; first compound 0.1 µM) of 0.39 and a relative viability (Everolimus + Tozasertib; first compound 0.3162 µM) of 0.381. It also gave a relative viability (Everolimus + Tozasertib; first compound 1 µM) of 0.385, a relative viability (Everolimus + Dasatinib; first compound 0.01 µM) of 0.388 and a relative viability (Everolimus + Dasatinib; first compound 0.03162 µM) of 0.566. The relative viability (Everolimus + Dasatinib; first compound 0.1 µM) was 0.317, the relative viability (Everolimus + Dasatinib; first compound 0.3162 µM) was 0.352 and the relative viability (Everolimus + Dasatinib; first compound 1 µM) was 0.382. The relative viability (Everolimus + Phenformin; first compound 0.01 µM) was 0.466, the relative viability (Everolimus + Phenformin; first compound 0.03162 µM) was 0.622 and the relative viability (Everolimus + Phenformin; first compound 0.1 µM) was 0.444. The relative viability (Everolimus + Phenformin; first compound 0.3162 µM) was 0.444 and the relative viability (Everolimus + Phenformin; first compound 1 µM) was 0.512.
